Publication PMC12670426 (Journal of Medicinal Chemistry, 2025)
Like-named read-outs stand apart in the source and are kept apart here.

What was measured:
[1] = biological target: T1, human galectin-1 (Gal-1, full length) (Homo sapiens, UniProt P09382); assay: Competitive fluorescence polarization assay, Gal-1; type: binding
T1 construct: Gal-1 is a prototype galectin consisting of a single CRD and was used in full length; 6xHis tag with TEV protease site (N, cleaved yes); made in house; host or cells: BL21 Escherichia coli (pET-15b)
Description: (§1) Our investigation of the structure–activity relationship of N-aryl-N-lactosylamides started with an initial screening of substituted acetanilides (Table ). These compounds can be readily synthesized from a wide range of commercially available substituted anilines. Affinity was evaluated using a fluorescence polarization assay, which enables reliable determination of dissociation constants (K d) between small molecules and galectins. All inhibitors in this series were tested against the two most common human galectins: Gal-1 and Gal-3. Gal-1 is a prototype galectin consisting of a single CRD and was used in full length. In the case of Gal-3, which consists of the C-terminal CRD and N-terminal unfolded region, only the C-terminal domain was used (Gal-3C). Affinities were compared to methyl β-lactoside (β-LacOMe) as a baseline.
(§2) Fluorescence polarization experiments for determining inhibitor affinities were performed using the same instrumentation and settings as described for the direct binding experiments. […] The galectin–probe mixture was subsequently added using a Certus Flex liquid handler (Fritz Gyger AG, Switzerland) to reach a final volume of 5 μL. Anisotropy was measured after 30–60 min incubation at 25 °C. Inhibitor dissociation constants (K d) were calculated using Wang’s exact cubic model for competitive binding implemented in the BindCurve package. Protein and probe concentrations used in these competitive experiments are provided in the Supporting Information.
(§3) Competitive binding was modeled by Wang’s exact cubic model,3 which is written as […]
(§4) r = rmin + (rmax − rmin) 3 (6) […]
(§5) where r, rmin and rmax have the same meaning as in Equation 1. The coefficients a, b, and c are […]
(§6) a = Kd∗ + Kd + [L∗]T + [L]T − [R]T (7) b = Kd∗([L]T − [R]T) + Kd([L∗]T − [R]T) + Kd∗ Kd (8) […]
(§7) where Kd∗ is the dissociation constant of the probe, Kd is the dissociation constant of the […]
(§8) the unlabeled ligand, and [R]T is the total concentration of the receptor. The angle θ is defined […]
(§9) In the competitive binding experiments, the values of [L∗]T, [R]T and Kd∗ are known and [L]T is titrated. The values of minimal and maximal anisotropy rmin and rmax were fixed during fitting at the values of the minimal and maximal asymptotes obtained from the direct binding experiments. The value of Kd was calculated as the only unfixed parameter in the model.
(§10) Experimental constants used for the competitive fluorescence polarization experiments are […]
(§11) Table S2. Experimental constants used for competitive fluorescence polarization experiments. […]

[2] = biological target: T2, human galectin-3C (Gal-3C, C-terminal CRD of galectin-3) (Homo sapiens, UniProt P17931); assay: Competitive fluorescence polarization assay, Gal-3C; type: binding
T2 construct: only the C-terminal domain was used (Gal-3C); 6xHis tag with TEV protease site (N, cleaved yes); made in house; host or cells: BL21 Escherichia coli (pET-15b)
Description: as §1, §2, §3, §4, §5, §6, §7, §8, §9, §10, §11

[3] = CSV supplement, unrounded mean, read-out: Gal1_IC50_mean_uM
[4] = CSV supplement, unrounded mean, read-out: Gal1_Kd_mean_uM
[5] = competitive fluorescence polarization, mean ± SD, read-out: Kd Gal-1
[6] = four-parameter logistic model, mean ± SD, read-out: IC50 Gal-1
[7] = CSV supplement, unrounded mean, read-out: Gal3C_IC50_mean_uM
[8] = CSV supplement, unrounded mean, read-out: Gal3C_Kd_mean_uM
[9] = competitive fluorescence polarization, mean ± SD, read-out: Kd Gal-3C
[10] = four-parameter logistic model, mean ± SD, read-out: IC50 Gal-3C

T2 sequence (P17931 118-248 limits assumed): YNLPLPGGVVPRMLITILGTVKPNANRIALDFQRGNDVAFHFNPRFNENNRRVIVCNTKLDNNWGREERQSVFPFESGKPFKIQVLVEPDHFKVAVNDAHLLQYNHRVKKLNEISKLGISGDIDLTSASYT
T1 sequence (P09382 2-135): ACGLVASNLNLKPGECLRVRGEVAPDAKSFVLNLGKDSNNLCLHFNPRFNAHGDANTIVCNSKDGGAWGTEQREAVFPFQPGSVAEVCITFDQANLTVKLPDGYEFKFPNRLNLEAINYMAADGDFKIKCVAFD

Row | IC50 [1, 3] [µM] | Kd [1, 4] [µM] | Kd [1, 5] [µM] | IC50 [1, 6] [µM] | IC50 [2, 7] [µM] | Kd [2, 8] [µM] | Kd [2, 9] [µM] | IC50 [2, 10] [µM] | decrease of affinity toward Gal-3C compared to 3r ([2]; compared to 3r) [fold] | improvement in affinity toward Gal-1 compared to β-LacOMe ([1]; compared to β-LacOMe) | improvement in affinity toward Gal-3C compared to β-LacOMe ([2]; compared to β-LacOMe) | SMILES
1 | 967 | 625 | 630 ± 100 | 970 ± 30 | 160 | 60.2 | 60 ± 10 | 160 ± 20 |  |  |  | CC(=O)N(c1cc(Br)cc(C(=O)O)c1)[C@@H]1O[C@H](CO)[C@@H](O[C@@H]2O[C@H](CO)[C@H](O)[C@H](O)[C@H]2O)[C@H](O)[C@H]1O [Compound 3ac, N-[4-O-(β-D-Galactopyranosyl)-β-D-glucopyranosyl]-N-(3-bromo-5-carboxyphenyl)acetamide]
2 | 981 | 545 | 540 ± 30 | 980 ± 10 | 346 | 115 | 110 ± 20 | 350 ± 10 |  |  |  | CC(=O)N(c1ccc2c(c1)OCO2)[C@@H]1O[C@H](CO)[C@@H](O[C@@H]2O[C@H](CO)[C@H](O)[C@H](O)[C@H]2O)[C@H](O)[C@H]1O [Compound 3p, N-[4-O-(β-D-Galactopyranosyl)-β-D-glucopyranosyl]-N-(1,3-benzodioxol-5-yl)acetamide]
3 | 919 | 481 | 480 ± 100 | 920 ± 90 | 404 | 133 | 130 ± 20 | 400 ± 50 |  |  |  | CC(=O)N(c1ccc(C)cc1)[C@@H]1O[C@H](CO)[C@@H](O[C@@H]2O[C@H](CO)[C@H](O)[C@H](O)[C@H]2O)[C@H](O)[C@H]1O [Compound 3b, N-[4-O-(β-D-Galactopyranosyl)-β-D-glucopyranosyl]-N-(4-methylphenyl)acetamide]
4 | 773 | 411 | 410 ± 20 | 770 ± 70 | 242 | 80.2 | 80 ± 9 | 240 ± 5 |  |  |  | CCOC(=O)c1ccccc1N(C(C)=O)[C@@H]1O[C@H](CO)[C@@H](O[C@@H]2O[C@H](CO)[C@H](O)[C@H](O)[C@H]2O)[C@H](O)[C@H]1O [Compound 3q, N-[4-O-(β-D-Galactopyranosyl)-β-D-glucopyranosyl]-N-[2-(ethylcarboxy)phenyl]acetamide]
5 | 973 | 661 | 660 ± 70 | 970 ± 50 | 346 | 137 | 140 ± 50 | 350 ± 30 |  |  |  | COc1ccc(N(C(C)=O)[C@@H]2O[C@H](CO)[C@@H](O[C@@H]3O[C@H](CO)[C@H](O)[C@H](O)[C@H]3O)[C@H](O)[C@H]2O)cc1 [Compound 3m, N-[4-O-(β-D-Galactopyranosyl)-β-D-glucopyranosyl]-N-(4-methoxyphenyl)acetamide]
6 | 842 | 542 | 540 ± 60 | 840 ± 90 | 273 | 106 | 110 ± 30 | 270 ± 0.9 | 2 |  |  | CC(=O)N(c1cccc(CO)c1)[C@@H]1O[C@H](CO)[C@@H](O[C@@H]2O[C@H](CO)[C@H](O)[C@H](O)[C@H]2O)[C@H](O)[C@H]1O [Compound 3x, N-[4-O-(β-D-Galactopyranosyl)-β-D-glucopyranosyl]-N-[3-(hydroxymethyl)phenyl]acetamide]
7 | 655 | 432 | 430 ± 30 | 660 ± 100 | 241 | 94.6 | 95 ± 40 | 240 ± 30 |  |  |  | COC(=O)c1cccc(N(C(C)=O)[C@@H]2O[C@H](CO)[C@@H](O[C@@H]3O[C@H](CO)[C@H](O)[C@H](O)[C@H]3O)[C@H](O)[C@H]2O)c1 [Compound 3v, N-[4-O-(β-D-Galactopyranosyl)-β-D-glucopyranosyl]-N-[3-(methylcarboxy)phenyl]acetamide]
8 | 666 | 445 | 440 ± 100 | 670 ± 90 | 220 | 88.1 | 88 ± 20 | 220 ± 6 |  |  |  | CNC(=O)c1cccc(N(C(C)=O)[C@@H]2O[C@H](CO)[C@@H](O[C@@H]3O[C@H](CO)[C@H](O)[C@H](O)[C@H]3O)[C@H](O)[C@H]2O)c1 [Compound 3w, N-[4-O-(β-D-Galactopyranosyl)-β-D-glucopyranosyl]-N-[3-(methylcarbamoyl)phenyl]acetamide]
9 | 718 | 396 | 400 ± 20 | 720 ± 40 | 355 | 113 | 110 ± 20 | 360 ± 20 |  |  |  | CC(=O)N(c1ccc(I)cc1)[C@@H]1O[C@H](CO)[C@@H](O[C@@H]2O[C@H](CO)[C@H](O)[C@H](O)[C@H]2O)[C@H](O)[C@H]1O [Compound 3l, N-[4-O-(β-D-Galactopyranosyl)-β-D-glucopyranosyl]-N-(4-iodophenyl)acetamide]
10 | 597 | 399 | 400 ± 20 | 600 ± 20 | 284 | 127 | 130 ± 80 | 280 ± 100 |  |  |  | CC(=O)N(c1ccc(F)c(F)c1)[C@@H]1O[C@H](CO)[C@@H](O[C@@H]2O[C@H](CO)[C@H](O)[C@H](O)[C@H]2O)[C@H](O)[C@H]1O [Compound 3h, N-[4-O-(β-D-Galactopyranosyl)-β-D-glucopyranosyl]-N-(3,4-difluorophenyl)acetamide]
11 | 654 | 363 | 360 ± 30 | 650 ± 30 | 363 | 113 | 110 ± 10 | 360 ± 10 |  |  |  | CC(=O)N(c1ccc(Cl)cc1)[C@@H]1O[C@H](CO)[C@@H](O[C@@H]2O[C@H](CO)[C@H](O)[C@H](O)[C@H]2O)[C@H](O)[C@H]1O [Compound 3j, N-[4-O-(β-D-Galactopyranosyl)-β-D-glucopyranosyl]-N-(4-chlorophenyl)acetamide]
12 | 957 | 651 | 650 ± 100 | 960 ± 40 | 130 | 50 | 50 ± 9 | 130 ± 3 |  |  |  | CC(=O)N(c1cc(Cl)cc(C(=O)O)c1)[C@@H]1O[C@H](CO)[C@@H](O[C@@H]2O[C@H](CO)[C@H](O)[C@H](O)[C@H]2O)[C@H](O)[C@H]1O [Compound 3ab, N-[4-O-(β-D-Galactopyranosyl)-β-D-glucopyranosyl]-N-(3-carboxy-5-chlorophenyl)acetamide]
13 | 1640 | 770 | 770 ± 200 | 1600 ± 70 | 756 | 234 | 230 ± 20 | 760 ± 90 |  |  |  | CO[C@@H]1O[C@H](CO)[C@@H](O[C@@H]2O[C@H](CO)[C@H](O)[C@H](O)[C@H]2O)[C@H](O)[C@H]1O [β-LacOMe, methyl β-lactoside, reference compound]
14 | 908 | 586 | 590 ± 80 | 910 ± 20 | 287 | 106 | 110 ± 30 | 290 ± 1 |  | approximately 2 fold | approximately 2 fold | CC(=O)N(c1ccccc1)[C@@H]1O[C@H](CO)[C@@H](O[C@@H]2O[C@H](CO)[C@H](O)[C@H](O)[C@H]2O)[C@H](O)[C@H]1O [Compound 3a, N-[4-O-(β-D-Galactopyranosyl)-β-D-glucopyranosyl]-N-phenylacetamide]
15 | 678 | 364 | 360 ± 40 | 680 ± 10 | 284 | 88.9 | 89 ± 20 | 280 ± 10 |  |  |  | COc1ccc(N(C(C)=O)[C@@H]2O[C@H](CO)[C@@H](O[C@@H]3O[C@H](CO)[C@H](O)[C@H](O)[C@H]3O)[C@H](O)[C@H]2O)cc1OC [Compound 3n, N-[4-O-(β-D-Galactopyranosyl)-β-D-glucopyranosyl]-N-(3,4-dimethoxyphenyl)acetamide]
